Source: patent US20250228865A1, “COMPOUNDS FOR ENHANCING READ THROUGH OF GENES CONTAINING PREMATURE TERMINATION CODONS AND METHODS FOR MAKING AND USING THE SAME” (Sanofi US Services Inc., priority 2022, published 2025)

How the values were obtained:
[1] = tested on: recombinant human CFTR carrying the premature stop codon (PTC) mutation R1162X; experiment: CFTR-PTC mutant translation readthrough, Nanoluc tagged CFTR luminescence (R1162X cell line); type: cell-based; details: for CFTR R1162X ACTIVITY Fold 10 μM G-418: fold over 10 μM G-418, in combination with G418; for EC50: in combination with G418, 16HBE cells, read-out: CFTR R1162X ACTIVITY EC50
Method in brief: (§1)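 Readthrough is the 48 h compound-induced luminescence increase scaled to that of maximal G418 (125-250 μM). Compounds run from 50 μM final in 2-fold steps, ±10 μM G418, on 16HBE lines carrying Nanoluc-tagged CFTR G542X (extracellular loop 4 tag) or R1162X (C-terminal tag), with 3 μM VX-809 present.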

[2] = tested on: recombinant human CFTR carrying the premature stop codon (PTC) mutation G542X; experiment: CFTR-PTC mutant translation readthrough, Nanoluc tagged CFTR luminescence (G542X cell line); type: cell-based; details: in combination with G418, G542X cell line; for CFTR G542X ACTIVITY Fold 10 μM G-418: fold over 10 μM G-418; for EC50: 16HBE cells
Method in brief: as §1

Structure (SMILES)	EC50 [1]	EC50 [2]	CFTR R1162X ACTIVITY Fold 10 μM G-418 [1]	CFTR G542X ACTIVITY Fold 10 μM G-418 [2]
COc1cccc(Cl)c1COc1ccc(N2CC(CO)OC2=O)cc1 (stereo not drawn)	> 10000 nM	> 10000 nM	C′ (C′ = <5X)	C′ (C′ = <5X)
O=C1OC(CO)CN1c1ccc(OCc2c(Cl)cc(F)cc2Cl)cc1 (stereo not drawn)	> 10000 nM	> 10000 nM	B′ (B′ = ≥5X to <10X)	B′ (B′ = ≥5X to <10X)
OCc1cn(-c2ncc(OCc3c(Cl)cccc3C(F)(F)F)cn2)cn1	< 1000 nM	< 1000 nM	C′ (C′ = <5X)	C′ (C′ = <5X)
NS(=O)(=O)N1CCN(c2ncc(OCc3c(Cl)cccc3Cl)cn2)CC1 [4-[5-[(2,6-dichlorophenyl)methoxy]pyrimidin-2-yl]piperazine-1-sulfonamide]	> 10000 nM	1000 to 10000 nM	A′ (A′ = ≥10X)	A′ (A′ = ≥10X)
Cn1cnc(-c2ccc(OCc3c(Cl)cccc3Cl)cc2)c1 [4-[4-[(2,6-dichlorophenyl)methoxy]phenyl]-1-methyl-imidazole]	1000 to 10000 nM	1000 to 10000 nM	A′ (A′ = ≥10X)	A′ (A′ = ≥10X)
NC(=O)c1ccc(OCc2c(Cl)cccc2Cl)cn1 [5-[(2,6-dichlorophenyl)methoxy]pyridine-2-carboxamide]	1000 to 10000 nM	1000 to 10000 nM	B′ (B′ = ≥5X to <10X)	A′ (A′ = ≥10X)
O=C1O[C@H](CO)CN1c1ccc(OCc2c(Cl)cccc2Cl)cc1 [(5S)-3-[4-[(2,6-dichlorophenyl)methoxy]phenyl]-5-(hydroxymethyl)oxazolidin-2-one]	1000 to 10000 nM	1000 to 10000 nM	B′ (B′ = ≥5X to <10X)	B′ (B′ = ≥5X to <10X)
CC1(C)NC(=O)N(c2ccc(OCc3c(Cl)cccc3C(F)(F)F)cc2)C1=O	1000 to 10000 nM	< 1000 nM	A′ (A′ = ≥10X)	A′ (A′ = ≥10X)
COC(=O)c1ncn(-c2ccc(OCc3c(C)cccc3C(F)(F)F)cc2)n1	1000 to 10000 nM	< 1000 nM	A′ (A′ = ≥10X)	A′ (A′ = ≥10X)
OCCC1CCN(c2ncc(OCc3c(Cl)cccc3Cl)cn2)CC1 [2-[1-[5-[(2,6-dichlorophenyl)methoxy]pyrimidin-2-yl]-4-piperidyl]ethanol]	1000 to 10000 nM	< 1000 nM	B′ (B′ = ≥5X to <10X)	A′ (A′ = ≥10X)
O=C1NC2(CC2)C(=O)N1c1ccc(OCc2c(Cl)cccc2C(F)(F)F)cc1	1000 to 10000 nM	< 1000 nM	A′ (A′ = ≥10X)	A′ (A′ = ≥10X)
Cc1cccc(C(F)(F)F)c1COc1cnc(N2C[C@H](O)C[C@H](O)C2)nc1	1000 to 10000 nM	1000 to 10000 nM	A′ (A′ = ≥10X)	A′ (A′ = ≥10X)
Cc1cccc(C(F)(F)F)c1COc1ccc(N2C(=O)NC(C(C)C)C2=O)cc1 (stereo not drawn)	1000 to 10000 nM	< 1000 nM	A′ (A′ = ≥10X)	A′ (A′ = ≥10X)
OCc1ncn(-c2ccc(OCc3c(Cl)cccc3C(F)(F)F)cc2)n1	1000 to 10000 nM	< 1000 nM	A′ (A′ = ≥10X)	A′ (A′ = ≥10X)
Clc1cccc(Cl)c1COc1cnc(N2CCC3(CCO3)C2)nc1 (stereo not drawn) [7-[5-[(2,6-dichlorophenyl)methoxy]pyrimidin-2-yl]-1-oxa-7-azaspiro[3.4]octane]	1000 to 10000 nM	< 1000 nM	A′ (A′ = ≥10X)	A′ (A′ = ≥10X)

Second part, led by results:

EC50 [1]	EC50 [2]	Structure (SMILES)	CFTR R1162X ACTIVITY Fold 10 μM G-418 [1]	CFTR G542X ACTIVITY Fold 10 μM G-418 [2]
1000 to 10000 nM	1000 to 10000 nM	OCCn1cnc(Nc2ccc(OCc3c(Cl)cccc3Cl)cn2)n1	A′ (A′ = ≥10X)	A′ (A′ = ≥10X)
< 1000 nM	< 1000 nM	Cc1cccc(C(F)(F)F)c1COc1cnc(N2C(=O)CN(Cc3ccccc3)C2=O)nc1	A′ (A′ = ≥10X)	A′ (A′ = ≥10X)
1000 to 10000 nM	1000 to 10000 nM	O=C1CN(c2ncc(OCc3c(Cl)cccc3C(F)(F)F)cn2)C[C@H](CO)N1	A′ (A′ = ≥10X)	A′ (A′ = ≥10X)
1000 to 10000 nM	1000 to 10000 nM	O=C(NCC1CN(c2ncc(OCc3c(Cl)cccc3Cl)cn2)CCO1)C(F)(F)F (stereo not drawn)	B′ (B′ = ≥5X to <10X)	A′ (A′ = ≥10X)
1000 to 10000 nM	1000 to 10000 nM	NC(=O)NCC1CN(c2ncc(OCc3c(Cl)cccc3Cl)cn2)CCO1 (stereo not drawn) [[4-[5-[(2,6-dichlorophenyl)methoxy]pyrimidin-2-yl]morpholin-2-yl]methylurea]	B′ (B′ = ≥5X to <10X)	A′ (A′ = ≥10X)
< 1000 nM	< 1000 nM	Cc1cccc(C(F)(F)F)c1COc1cnc(N2CCC(O)(CCO)CC2)nc1	A′ (A′ = ≥10X)	A′ (A′ = ≥10X)
1000 to 10000 nM	1000 to 10000 nM	C[C@H]1CO[C@H](CO)CN1c1ncc(OCc2c(Cl)cccc2Cl)cn1 (racemic)	A′ (A′ = ≥10X)	A′ (A′ = ≥10X)
< 1000 nM	< 1000 nM	CC1CN(c2ncc(OCc3c(Cl)cccc3Cl)cn2)CCN1C(N)=O (stereo not drawn)	A′ (A′ = ≥10X)	A′ (A′ = ≥10X)
1000 to 10000 nM	1000 to 10000 nM	Clc1cccc(Cl)c1COc1cnc(N2CC3CC2CO3)nc1 (stereo not drawn)	A′ (A′ = ≥10X)	A′ (A′ = ≥10X)
< 1000 nM	1000 to 10000 nM	O=C(O)C1CCCN(c2ncc(OCc3c(Cl)cccc3C(F)(F)F)cn2)C1 (stereo not drawn) [1-[5-[[2-chloro-6-(trifluoromethyl)phenyl]methoxy]pyrimidin-]		C′ (C′ = <5X)
< 1000 nM	< 1000 nM	Cc1cccc(C(F)(F)F)c1COc1cnc(-n2ncc(-c3ccccn3)n2)nc1	A′ (A′ = ≥10X)	A′ (A′ = ≥10X)
< 1000 nM	< 1000 nM	OC[C@@H]1CN(c2ncc(OCc3c(Cl)cccc3Cl)cn2)CCO1 [[(2S)-4-[5-[(2,6-dichlorophenyl)methoxy]pyrimidin-2-yl]morpholin-2-yl]methanol]	A′ (A′ = ≥10X)	A′ (A′ = ≥10X)
1000 to 10000 nM	< 1000 nM	OC1(c2ccccc2)CCN(c2ncc(OCc3c(Cl)cccc3Cl)cn2)CC1 [1-[5-[(2,6-dichlorophenyl)methoxy]pyrimidin-2-yl]-4-phenyl-piperidin-4-ol]	A′ (A′ = ≥10X)	A′ (A′ = ≥10X)
1000 to 10000 nM	1000 to 10000 nM	O=C1OC(CO)CN1c1ccc(OCc2c(Br)cccc2Br)cc1 (stereo not drawn) [3-[4-[(2,6-dibromophenyl)methoxy]phenyl]-5-(hydroxymethyl)oxazolidin-2-one]	A′ (A′ = ≥10X)	A′ (A′ = ≥10X)
1000 to 10000 nM	< 1000 nM	Cc1cccc(C(F)(F)F)c1COc1cnc(N2CCC[C@@H](O)C2)nc1	A′ (A′ = ≥10X)	A′ (A′ = ≥10X)
1000 to 10000 nM	1000 to 10000 nM	Cc1cccc(C(F)(F)F)c1COc1cnc(-n2cnnc2)nc1 [5-[[2-methyl-6-(trifluoromethyl)phenyl]methoxy]-2-(1,2,4-triazol-4-yl)pyrimidine]	A′ (A′ = ≥10X)	A′ (A′ = ≥10X)
1000 to 10000 nM	1000 to 10000 nM	OCC1CN(c2ccc(OCc3c(Cl)cccc3Cl)cn2)CCO1 (stereo not drawn) [[4-[5-[(2,6-dichlorophenyl)methoxy]-2-pyridyl]morpholin-2-yl]methanol]	A′ (A′ = ≥10X)	A′ (A′ = ≥10X)
< 1000 nM	< 1000 nM	Cc1cccc(C(F)(F)F)c1COc1cnc(N2CCC(O)C(C)(C)C2)nc1 (stereo not drawn)	A′ (A′ = ≥10X)	A′ (A′ = ≥10X)
< 1000 nM	< 1000 nM	Cc1cccc(C(F)(F)F)c1COc1cnc(N2CCOC(CO)C2)nc1 (stereo not drawn)	A′ (A′ = ≥10X)	A′ (A′ = ≥10X)
1000 to 10000 nM	> 10000 nM	NC1(CO)CCN(c2ncc(OCc3c(Cl)cccc3C(F)(F)F)cn2)C1 (stereo not drawn)	B′ (B′ = ≥5X to <10X)	A′ (A′ = ≥10X)
< 1000 nM	< 1000 nM	Cc1cccc(C(F)(F)F)c1COc1ccc(-n2cnc(C(N)=O)n2)cc1	A′ (A′ = ≥10X)	B′ (B′ = ≥5X to <10X)
< 1000 nM	< 1000 nM	Cc1cccc(C(F)(F)F)c1COc1cnc(N2CCO[C@@H](CO)C2)nc1	A′ (A′ = ≥10X)	A′ (A′ = ≥10X)
